According to patent US5665704A, “Receptor specific atrial natriuretic peptides” (Genentech, Inc., priority 1995, dated 1997):
Bridge positions count the residues as written; N and C are the ends. Square brackets hold non-standard residues; d marks the D form. Peptide text beside a SMILES is read from it. Mpa = O=C(O)CCS

How the values were obtained:
hNPR-A = target: T1, hNPR-A (Homo sapiens, UniProt P16066); assay: Binding affinity for hNPR-A (competitive displacement of I^125 labeled wild-type ANF)
T1 sequence (P16066 33-1061): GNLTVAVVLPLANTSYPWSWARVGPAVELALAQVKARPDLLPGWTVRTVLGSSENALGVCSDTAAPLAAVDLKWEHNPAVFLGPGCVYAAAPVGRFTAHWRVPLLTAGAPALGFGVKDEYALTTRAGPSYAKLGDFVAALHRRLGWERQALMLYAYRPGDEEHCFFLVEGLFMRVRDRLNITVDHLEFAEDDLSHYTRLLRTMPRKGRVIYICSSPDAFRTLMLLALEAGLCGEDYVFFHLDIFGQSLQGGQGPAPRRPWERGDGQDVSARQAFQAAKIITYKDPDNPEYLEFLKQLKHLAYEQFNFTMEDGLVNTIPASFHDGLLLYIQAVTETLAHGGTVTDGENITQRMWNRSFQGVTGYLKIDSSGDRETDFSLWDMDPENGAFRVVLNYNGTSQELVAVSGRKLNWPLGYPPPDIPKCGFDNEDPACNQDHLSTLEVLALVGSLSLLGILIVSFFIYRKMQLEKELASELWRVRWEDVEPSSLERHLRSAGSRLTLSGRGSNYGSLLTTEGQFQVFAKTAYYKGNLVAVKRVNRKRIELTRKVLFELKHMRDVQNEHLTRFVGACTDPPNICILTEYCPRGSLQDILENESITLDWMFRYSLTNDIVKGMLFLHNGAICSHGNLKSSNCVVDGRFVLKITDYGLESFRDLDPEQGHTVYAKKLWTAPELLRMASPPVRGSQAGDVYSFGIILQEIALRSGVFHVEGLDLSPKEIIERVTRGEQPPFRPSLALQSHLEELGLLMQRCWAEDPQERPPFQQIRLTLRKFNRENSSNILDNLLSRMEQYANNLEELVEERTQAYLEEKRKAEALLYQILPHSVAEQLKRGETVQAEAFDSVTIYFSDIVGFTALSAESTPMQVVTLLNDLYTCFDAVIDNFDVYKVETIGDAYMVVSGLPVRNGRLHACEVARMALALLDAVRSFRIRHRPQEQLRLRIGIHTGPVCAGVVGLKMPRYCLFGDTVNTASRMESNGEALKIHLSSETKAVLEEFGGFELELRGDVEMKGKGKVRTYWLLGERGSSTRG

hNPR-C = target: T2, hNPR-C (Homo sapiens, UniProt P17342); assay: Binding affinity for clearance receptor hNPR-C
T2 sequence (P17342 27-541): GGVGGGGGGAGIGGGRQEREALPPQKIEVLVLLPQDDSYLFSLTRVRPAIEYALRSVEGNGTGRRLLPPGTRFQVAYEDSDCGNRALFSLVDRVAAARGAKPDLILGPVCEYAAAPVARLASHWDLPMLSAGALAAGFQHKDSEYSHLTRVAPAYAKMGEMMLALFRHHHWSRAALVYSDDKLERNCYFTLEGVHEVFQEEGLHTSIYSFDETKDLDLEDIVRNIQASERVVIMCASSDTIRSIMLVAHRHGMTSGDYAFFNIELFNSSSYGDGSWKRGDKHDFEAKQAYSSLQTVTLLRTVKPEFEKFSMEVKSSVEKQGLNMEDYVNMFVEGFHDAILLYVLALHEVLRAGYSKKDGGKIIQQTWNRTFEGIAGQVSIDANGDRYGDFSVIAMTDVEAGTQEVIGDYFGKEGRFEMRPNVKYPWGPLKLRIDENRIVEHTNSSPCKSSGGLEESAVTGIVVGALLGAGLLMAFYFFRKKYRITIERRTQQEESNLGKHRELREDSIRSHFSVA
Excerpt: For assay systems to measure binding of hANF and the compounds of this invention to hNPR-C see: Schank, D. B., et al., Biochem. Biophys. Res. Comm. 127:433-442 (1985); Scarborough, R. M., J. Biol. Chem. 261:12960-12964 and WO 90/01940.

[1] = target: T3, Human endopeptidase 24.11 (hNEP) (Homo sapiens, UniProt P08473); assay: Degradation of ANF variants by human NEP, half-life by HPLC (Example 22); settings: FIG. 6: ANF variants 0.5 mg/ml, endopeptidase 11.24 (NEP) 0.225 mg/ml
T3 sequence (P08473 whole entry): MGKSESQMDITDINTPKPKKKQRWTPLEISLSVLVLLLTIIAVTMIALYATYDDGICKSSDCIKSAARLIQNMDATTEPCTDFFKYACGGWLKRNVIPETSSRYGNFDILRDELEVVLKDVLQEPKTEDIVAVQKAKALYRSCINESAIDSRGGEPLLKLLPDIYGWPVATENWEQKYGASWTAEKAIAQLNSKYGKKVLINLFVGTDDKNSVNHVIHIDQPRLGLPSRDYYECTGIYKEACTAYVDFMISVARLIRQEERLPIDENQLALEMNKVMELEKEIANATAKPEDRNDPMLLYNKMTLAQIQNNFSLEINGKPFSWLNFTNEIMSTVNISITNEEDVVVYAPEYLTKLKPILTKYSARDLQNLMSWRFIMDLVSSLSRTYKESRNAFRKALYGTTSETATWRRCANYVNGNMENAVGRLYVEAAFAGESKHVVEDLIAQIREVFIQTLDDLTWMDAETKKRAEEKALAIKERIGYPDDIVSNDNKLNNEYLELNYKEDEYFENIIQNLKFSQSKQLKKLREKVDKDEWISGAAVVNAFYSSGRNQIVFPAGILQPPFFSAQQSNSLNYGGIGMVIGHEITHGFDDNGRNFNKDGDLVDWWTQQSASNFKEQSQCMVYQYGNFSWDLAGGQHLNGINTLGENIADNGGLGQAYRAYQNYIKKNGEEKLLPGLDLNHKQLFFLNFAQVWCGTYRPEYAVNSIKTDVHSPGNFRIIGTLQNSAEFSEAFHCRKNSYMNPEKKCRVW
Procedure: (§1) The half-life of various ANF variants was measured according to the following procedure.
(§2) ANF Solution: An accurately weighed amount of ANF or variant thereof was diluted with HEPES buffer (5 ml of 1M HEPES Buffer and 0.1 ml of Tween 20 diluted to a 100 ml volume with DI water) to make a 0.5 mg/ml solution.
(§3) hNEP/HEPES Solution: 75 μl of a 1 mg/ml solution of hNEP (see U.S. Pat. No. 4,960,700) is dissolved in 992.5 μl of HEPES buffer (as described above) and vortex mixed. The resulting mixture is stored in a silylated Eppendorf tube and periodically checked for activity against an ANF peptide standard.
(§4) Assay conditions: 150 μl of an ANF solution in the HEPES buffer is diluted with 820 μl HEPES buffer and vortex mixed (1 sec). Careful note of the time is taken as 30 μl of the hNEP/HEPES solution is added and the solution is vortex mixed for 1 sec. and analyzed by periodic removal of constant volume aliquots by the HPLC autosampler. A 2.5 cm×50 cm, C-18 reversed-phase column (15 micron, 300Å]) was used and elution was achieved by using a shallow gradient of increasing acetonitrile. The elution conditions consisted of a 10% to 50% acetonitrile (containing 0.1% TFA) gradient at 0.5% min.^-1. The aqueous phase was 0.1% TFA in water. The peak area of the ANP peptide is recorded at these periodic intervals and a half-life is determined from these values.

[2] = target: T3, Human endopeptidase 24.11 (hNEP); assay: in vitro; settings: isolated enzyme
Procedure: as §1, §2, §3, §4

half-life at 32 nM/ml [2] [min] | SMILES | IC50 (hNPR-A) [nM] | IC50 (hNPR-C) [nM] | Half-Life [1] [min]
 | CC[C@H](C)[C@@H]1NC(=O)[C@H](CCCNC(=N)N)NC(=O)[C@H](CC(=O)O)NC(=O)[C@H]([C@@H](C)CC)NC(=O)[C@H](CCCNC(=N)N)NC(=O)CNC(=O)CNC(=O)[C@H](Cc2ccccc2)NC(=O)[C@@H](NC(=O)[C@H](CO)NC(=O)[C@H](CO)NC(=O)[C@H](CCCNC(=N)N)NC(=O)[C@H](CCCNC(=N)N)NC(=O)[C@H](CC(C)C)NC(=O)[C@H](CO)NC(=O)[C@H](CCCNC(=N)N)NC(=O)[C@@H]2CCCN2C(=O)[C@H](C)NC(=O)[C@@H](N)[C@@H](C)O)CSSC[C@@H](C(=O)N[C@@H](CC(N)=O)C(=O)N[C@@H](CO)C(=O)N[C@@H](Cc2ccccc2)C(=O)N[C@@H](CCCNC(=N)N)C(=O)N[C@@H](Cc2ccc(O)cc2)C(=O)O)NC(=O)CNC(=O)[C@H](CC(C)C)NC(=O)CNC(=O)[C@H](CO)NC(=O)[C@H](CCC(N)=O)NC(=O)[C@H](C)NC(=O)[C@H](CCCNC(=N)N)NC1=O [ANF23] (H-TAPRSLRRSSCFGGRIDRIRAQSGLGCNSFRY-OH; disulfide 11-27) | 0.044 | 4.19 | 737
106 | CC[C@H](C)[C@@H]1NC(=O)[C@H](CCCNC(=N)N)NC(=O)[C@H](CC(=O)O)NC(=O)[C@H]([C@@H](C)CC)NC(=O)[C@H](CC(=O)O)NC(=O)CNC(=O)[C@@H](C)NC(=O)[C@H](Cc2ccccc2)NC(=O)CCSSC[C@@H](C(=O)N[C@@H](CC(N)=O)C(=O)N[C@@H](CO)C(=O)N[C@@H](Cc2ccccc2)C(=O)N[C@@H](CCCNC(=N)N)C(=O)N[C@@H](Cc2ccc(O)cc2)C(=O)O)NC(=O)CNC(=O)[C@H](CC(C)C)NC(=O)CNC(=O)[C@H](CO)NC(=O)[C@H](CCC(N)=O)NC(=O)[C@H](C)NC(=O)[C@H](CCCNC(=N)N)NC1=O [ANF92] ([Mpa]F[dA]GDIDRIRAQSGLGCNSFRY-OH; disulfide 1-17) |  |  | 
